Assay results as given in ChEMBL document CHEMBL1201862, “PubChem BioAssay data set” (2004).
Activity calls are given as the source filed them.

What was measured:
[1] = molecular target: T1, Heat shock factor protein 1 (Mus musculus, UniProt P38532); experiment: decrease of HSF1-responsive luciferase luminescence – cell-based, NIH3T3, dose retest, confirmation (AID 2382); type: functional;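 further: NIH3T3 fibroblasts with HSF1-driven luciferase reporter stressed by proteasome inhibitor MG132; luminescence from HSF1-driven luciferase expression after 8 hours of MG132 stress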
T1 sequence (P38532 whole entry): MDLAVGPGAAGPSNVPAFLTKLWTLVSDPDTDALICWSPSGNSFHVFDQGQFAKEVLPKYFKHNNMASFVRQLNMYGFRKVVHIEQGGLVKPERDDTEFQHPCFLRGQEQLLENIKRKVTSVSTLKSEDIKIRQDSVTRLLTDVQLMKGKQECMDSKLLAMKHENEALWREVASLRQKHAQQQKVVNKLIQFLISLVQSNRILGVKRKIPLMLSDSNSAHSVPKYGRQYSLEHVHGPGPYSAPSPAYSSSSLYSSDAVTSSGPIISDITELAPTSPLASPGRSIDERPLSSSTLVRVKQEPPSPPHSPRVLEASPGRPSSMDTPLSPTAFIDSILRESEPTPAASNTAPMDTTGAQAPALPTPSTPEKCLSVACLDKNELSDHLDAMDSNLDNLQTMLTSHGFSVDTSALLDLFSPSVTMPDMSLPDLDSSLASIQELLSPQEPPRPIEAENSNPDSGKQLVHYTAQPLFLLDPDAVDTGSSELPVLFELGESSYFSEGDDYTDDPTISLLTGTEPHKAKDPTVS

[2] = molecular target: Luciferin 4-monooxygenase (Photinus pyralis, UniProt P08659); experiment: inhibition of purified Photinus pyralis luciferase – biochemical, luminescence, dose response (AID 1891)
Chain of Luciferin 4-monooxygenase (P08659 whole entry): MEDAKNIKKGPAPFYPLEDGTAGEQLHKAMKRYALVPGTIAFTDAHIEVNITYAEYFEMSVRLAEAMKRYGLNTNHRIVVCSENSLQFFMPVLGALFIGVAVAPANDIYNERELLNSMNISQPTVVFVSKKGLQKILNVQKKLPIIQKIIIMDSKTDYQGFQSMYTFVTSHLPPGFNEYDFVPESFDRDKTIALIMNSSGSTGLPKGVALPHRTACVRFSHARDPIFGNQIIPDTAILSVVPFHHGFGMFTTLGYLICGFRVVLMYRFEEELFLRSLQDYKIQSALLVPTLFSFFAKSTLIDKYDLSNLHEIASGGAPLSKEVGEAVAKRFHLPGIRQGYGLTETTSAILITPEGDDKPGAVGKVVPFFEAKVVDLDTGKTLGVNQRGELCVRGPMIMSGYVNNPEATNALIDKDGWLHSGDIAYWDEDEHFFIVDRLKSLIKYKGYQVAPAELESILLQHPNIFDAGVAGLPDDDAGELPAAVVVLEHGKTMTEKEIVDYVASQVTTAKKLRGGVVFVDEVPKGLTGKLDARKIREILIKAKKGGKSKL

[3] = Luminescence Cell-Based Dose Confirmation HTS to Identify Inhibitors of Platelet Dense Granule Release. [Related pubchem assays: 1663 (Primary HTS), 1678 (Summary of Project)]; type: functional
[4] = Luminescence-based counterscreen assay for KLF5 inhibitors: dose response cell-based high throughput screening assay to identify cytotoxic compounds using the IEC-6 intestinal epithelial cell line. [Related pubchem assays: 1700 (Primary screen.), 1834 (Confirmation screen.), 1858 (Summary AID.), 1905 (Counterscreen.)]; type: functional
[5] = molecular target: COUP transcription factor 2 (Homo sapiens, UniProt P24468); experiment: Luminescence-based cell-based high throughput dose response assay to identify inhibitors of COUP-TFII (NR2F2).; type: functional;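 further: HEK293 cells transiently cotransfected with COUP-TFII expression vector and reporter; luciferase reporter luminescence driven by COUP-TFII from the pX2-168 reporter plasmid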
Chain of COUP transcription factor 2 (P24468 whole entry): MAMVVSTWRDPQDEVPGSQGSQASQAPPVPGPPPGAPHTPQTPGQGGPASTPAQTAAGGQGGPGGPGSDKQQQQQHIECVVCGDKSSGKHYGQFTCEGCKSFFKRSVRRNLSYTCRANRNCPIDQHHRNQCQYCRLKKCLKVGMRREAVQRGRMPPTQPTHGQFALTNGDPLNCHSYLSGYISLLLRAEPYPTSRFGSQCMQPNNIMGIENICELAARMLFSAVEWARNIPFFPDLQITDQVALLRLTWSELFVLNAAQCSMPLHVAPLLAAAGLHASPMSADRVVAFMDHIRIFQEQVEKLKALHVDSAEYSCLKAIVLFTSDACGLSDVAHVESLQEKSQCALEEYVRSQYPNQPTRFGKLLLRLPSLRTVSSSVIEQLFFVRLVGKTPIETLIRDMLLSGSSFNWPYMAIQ

HeLa = experiment: viability loss in HeLa cells – cell-based, ATP luminescence, cherry-pick samples, cytotoxicity control, dose response (AID 687004); type: functional; conditions: Homo sapiens
HEK293 = experiment: viability loss in HEK293T cells – cell-based, ATP luminescence, cherry-pick samples, cytotoxicity control, dose response (AID 687005); type: functional; conditions: Homo sapiens;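 further: cells exposed to compound for 48 hours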
[6] = HEK293 Cytotoxicity Assay Measured in Cell-Based System Using Plate Reader - 7071-01_Inhibitor_Dose_CherryPick_Activity_Set2.; type: functional
Paired box protein Pax-8 = Paired box protein Pax-8 (Homo sapiens, UniProt Q06710); experiment: PAX8 transcriptional activity inhibition in RMG-I – RMG-I cells, luciferase, cherry-pick, dose response (AID 687027); type: functional, cell-based;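 further: luciferase reporter driven by Pax8 target thyroperoxidase promoter measured by SteadyGlo luminescence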
Chain of Paired box protein Pax-8 (Q06710 whole entry): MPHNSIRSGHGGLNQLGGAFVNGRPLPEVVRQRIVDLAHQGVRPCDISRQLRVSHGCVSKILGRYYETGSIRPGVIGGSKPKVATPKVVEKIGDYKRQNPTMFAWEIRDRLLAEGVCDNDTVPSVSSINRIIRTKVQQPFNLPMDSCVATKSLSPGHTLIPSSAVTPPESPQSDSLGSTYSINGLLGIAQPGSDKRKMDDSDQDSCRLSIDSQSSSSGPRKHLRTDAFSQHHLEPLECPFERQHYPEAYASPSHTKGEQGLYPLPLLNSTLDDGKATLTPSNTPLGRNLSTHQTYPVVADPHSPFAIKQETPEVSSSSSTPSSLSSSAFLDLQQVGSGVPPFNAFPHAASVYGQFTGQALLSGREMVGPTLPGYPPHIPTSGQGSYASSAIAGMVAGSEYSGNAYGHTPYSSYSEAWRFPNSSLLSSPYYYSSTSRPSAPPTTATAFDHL

[7] = OVCAR-3 cell viability loss – plate reader, dry powder samples, PAX8 inhibitor project, dose response (AID 743044); type: functional, cell-based
[8] = IGROV1 cell killing – plate reader, dry powder samples, PAX8 inhibitor project, dose response (AID 743043); type: functional, cell-based; conditions: IGROV-1
[9] = general cell-killing toxicity readout – plate reader, dry powder samples, cytotoxicity control for PAX8 inhibitor project, dose response (AID 743021); type: functional, cell-based
[10] = OVCAR8 cell viability loss – plate reader, dry powder samples, PAX8 project, dose response (AID 743197); type: functional, cell-based; conditions: OVCAR-8

In the case of `COc1ccc(C(=O)Nc2ccccc2C(=O)N/N=C/c2ccc(O)c(OC)c2)cc1`, the EC50 [1] was < 0.16 µM (active), the EC50 [2] was 0.149 µM (active) and the EC50 [3] was 0.156 µM (active). For the same molecule, the IC50 [4] was > 39.8 µM (not active) and the IC50 [5] was > 9.49 µM (active).
For `C[C@@H]1CN([C@H](C)CO)S(=O)(=O)c2ccc(C#Cc3ccc(F)cc3)cc2O[C@H]1CN(C)C(=O)NC1CCCC1`, the AC50 (HeLa) was 34.7 µM (active), the AC50 (HEK293) was 4.91 µM (active) and the AC50 [6] was 4.91 µM (active).
In the case of `COc1cccc(S(=O)(=O)Nc2ccc3c(c2)[C@@H]2C[C@@H](CC(=O)NCc4cccc(F)c4)O[C@H](CO)[C@@H]2O3)c1`, the AC50 (HEK293) was 27.7 µM (active) and the AC50 [6] was 27.7 µM (active).
In the case of `C[C@@H]1CCCCO[C@H](CN(C)Cc2ccc(C(F)(F)F)cc2)[C@@H](C)CN([C@@H](C)CO)C(=O)c2cc(NC(=O)c3ccccc3)ccc2O1`, the AC50 (Paired box protein Pax-8) was 6.57 µM (active), the AC50 [7] was 10.8 µM (active) and the AC50 [8] was 26.2 µM (active). The AC50 [9] was 52.2 µM (active) and the AC50 [10] was 21.5 µM (active).
